Assay results as given in patent US6004952A, “Micacocidin derivatives” (Shinogi & Co., Ltd., priority 1996, dated 1999).
In brackets after ≈: the same amount, converted by molar mass. Where two headings read alike, the source gives them in different places.

Assays:
M. gallisepticum [1] = test: In vivo evaluation test for M. gallisepticum in chickens (air-sac lesions); conditions: 6 chickens tested
[2] = Cytotoxicity to primary chicken kidney culture cells; assay type: cell-based; conditions: primary chicken kidney cells
Aspergillus fumigatus = test: Antifungal activity, micro-liquid dilution method, Aspergillus fumigatus; assay type: cell-based, Aspergillus fumigatus strain MA; conditions: Aspergillus fumigatus, 24 h, 30° C., read-out: Antifungal activities: IC50
Experimental: (§1) Antifungal activities of the compounds to Candida albicans (strain Ca-15) and Asperilhm fumigatus (strain MA), representative pathogenic fungi, were determined by micro-liquid dilution method using 96-well microplates. A fungal suspension stored under freezing was adjusted to 1×1 O^5 CFU/ml by medium, of which 100 μl portions were charged into each well. The compound of the present invention was dissolved in dimethylsulfoxide (DMSO). Using the resultant solution, 2-fold dilution series were prepared together with the fungal suspension charged into the wells. YNB medium and RPMI medium were used. After cultured for 24 hours at 30° C., evaluation was performed by detecting the turbidity (wave length: 595 nm) using microplate reader.

Eimeria tenella = test: Growth inhibition activities to avian coccidium in primary chicken kidney cells; assay type: cell-based; conditions: Eimeria tenella; more than 80% of suppression rate regarded as effective; read-out: Effective dose (growth inhibition)
Experimental: The kidneys of SPF new born chicken was sterilely removed, which was treated with trypsin and the resultant primary kidney cells were cultured in 24-well plate. Monolayer culture after cultured for 3 days was treated simultaneously with compounds adjusted to predetermined concentration and sporozoit obtained by artificial excystation, which was cultured a 40° C. Premature and mature schizonts were observed under microscope, and the growth inhibition activities (suppression rate) for each treatment group were calculated at a proportion of the number of schizonts for the sporozoit-inoculated, compound-untreated control group (100%).

Candida albicans = test: Antifungal activity, micro-liquid dilution method, Candida albicans; assay type: cell-based, Candida albicans strain Ca-15; conditions: Candida albicans, 24 h, 30° C., read-out: Antifungal activities: IC50
Experimental: as §1

mice spleen cells [3] = test: Suppression of reaction of mice spleen cells to lypopolysaccaride (LPS), in vitro (MTT); assay type: cell-based, BDF1 mice
Experimental: (§2) To each well of 96 well microtiter plate were added 5×10^5 spleen cells of BDF1 mice suspended in 0.1 ml of RPMI 1640 medium supplemented with 10% bovine fetus serum (supplemented with 2 mM sodium hydrogen carbonate, 50 Units/ml of penicillin, 50 μg/ml of streptomycin, and 5×10^-5 M of 2-mercaptoethanol), and then, 5 μg/ml of Concanavalin A (Con A) or 10 μg/ml of lypopolysaccaride (LPS) and various concentrations of test substance, of which final volume was adjusted to 0.2 ml. Test substances were dissolved in dimethylsulfoxide (DMSO), diluted with RPMI 1640 stated above, and added to the wells so that final concentration of the substances becomes less than 10000 ng/ml. The 96-well microtiter plates were cultured at 37° C. for 3 days in an incubator which was maintained at the humidity of 100%, 5% of carbon dioxide and 95% of air. After cultivation is completed, […] of 6 mg/ml solution of MTT {3-(4,5-dimethylthiazol-2yl)-2,5 diphenyltetrazoliumbromide} (Sigma) is added to each well, which is cultured at 37° C. for […] under the same conditions. After cultivation is completed, formazan formed is dissolved by adding 50 μl of a solution of 20% dodecyl sodium sulfonate (SDS) in 0.02N hydrochloric acid and kept standing at 37° C. for 24 hours. The absorbance (OD) of the formazan which was produced in proportion to the number of alive cells, was determined by using immunoreader equipped with 570 nm filter (see The Journal of Immunological Methods, Vol.65, 55-63, 1983).
(§3) Cell growth inhibition rate and IC50 value were calculated according to the correlation between the concentration and the absorbance for each substance.

mice spleen cells [4] = test: Suppression of reaction of mice spleen cells to Concanavalin A, in vitro (MTT); assay type: cell-based, BDF1 mice
Experimental: as §2, §3

M. pneumoniae = test: MIC, liquid dilution method, Mycoplasma pneumoniae; conditions: Mycoplasmoides pneumoniae
Mycoplasma = test: MIC to Mycoplasmas (summary in words); assay type: cell-based
M. hyopneumoniae = test: MIC, liquid dilution method, Mycoplasma hyopneumoniae; conditions: Mesomycoplasma hyopneumoniae
M. gallisepticum [5] = test: MIC, liquid dilution method, Mycoplasma gallisepticum; conditions: Mycoplasmoides gallisepticum

Question: Which results are given for `CN(C)[C@@H]1C(O)=C(C(N)=O)C(=O)[C@@]2(O)C(O)=C3C(=O)c4c(O)ccc(Cl)c4[C@@](C)(O)[C@H]3C[C@@H]12` [CTC, chlortetracycline, reference compound]?
Answer: air-sac lesions (the number of chickens): (+) slight (M. gallisepticum [1]; 50 mg/kg × 1, orally): 0; air-sac lesions (the number of chickens): (++-+++) moderate to severe (M. gallisepticum [1]; 50 mg/kg × 1, orally): 3; air-sac lesions (the number of chickens): (-) non (M. gallisepticum [1]; 50 mg/kg × 1, orally): 3; number of chickens having lesions (M. gallisepticum [1]; 50 mg/kg × 1, orally): 3; air-sac lesions (the number of chickens): (+) slight (M. gallisepticum [1]; 100 mg/kg × 1, orally): 0; air-sac lesions (the number of chickens): (++-+++) moderate to severe (M. gallisepticum [1]; 100 mg/kg × 1, orally): 1; air-sac lesions (the number of chickens): (-) non (M. gallisepticum [1]; 100 mg/kg × 1, orally): 5; number of chickens having lesions (M. gallisepticum [1]; 100 mg/kg × 1, orally): 1; air-sac lesions (the number of chickens): (+) slight (M. gallisepticum [1]; 200 mg × 1, orally): 0; air-sac lesions (the number of chickens): (++-+++) moderate to severe (M. gallisepticum [1]; 200 mg × 1, orally): 1; air-sac lesions (the number of chickens): (-) non (M. gallisepticum [1]; 200 mg × 1, orally): 5; number of chickens having lesions (M. gallisepticum [1]; 200 mg × 1, orally): 1

Question: For `CCCCCc1cccc(O)c1C1=NC(C2SCC(C(O)C(C)(C)C3=NC(C)(C(=O)O)CS3)N2C)CS1` (stereo not shown) [Compound 2], which MCC [2] is on record?
Answer: Its MCC is 10 µg/mL.

Question: What about the IC50 (Aspergillus fumigatus; RPMI medium) of the same compound?
Answer: The IC50 was 0.2 mg/L (≈ 0.353 µM).

Question: What about the IC50 (Aspergillus fumigatus; YNB medium) of the same compound?
Answer: Its IC50 is 3.2 mg/L (≈ 5.66 µM).

Question: What about the minimal effective concentration (Eimeria tenella) of the same compound?
Answer: Its minimal effective concentration is 2.5 µg/mL.

Question: What about the IC50 (Candida albicans; RPMI medium) of the same compound?
Answer: Its IC50 is 1.6 mg/L (≈ 2.83 µM).

Question: What about the IC50 (Candida albicans; YNB medium) of the same compound?
Answer: The IC50 was 6.3 mg/L (≈ 11.1 µM).

Question: What does the source list for `CCCCCc1cccc(O)c1C1=NC(C2SCC(C(OC(C)=O)C(C)(C)C3=NC(C)(C(=O)O)CS3)N2C)CS1` (stereo not shown) [Compound 3]?
Answer: MCC [2]: > 10 µg/mL; minimal effective concentration (Eimeria tenella): 10 µg/mL

Question: Which “suppression of the reaction to LPS of spleen cells” value (mice spleen cells [3]) does the source give for `CCCCCc1cccc(O)c1C1=NC(C2SCC(C(OCc3ccc(Cl)cc3)C(C)(C)C3=NC(C)(C(=O)O)CS3)N2C)CS1` (stereo not shown) [Compound 6] here?
Answer: The value was “suppressed”.

Question: And the inhibition at 0.156 µg/mL (mice spleen cells [3]; Mus musculus, 72 h, LPS, 156 ng/ml, read-out: Suppression rate)?
Answer: Its inhibition at 0.156 µg/mL is 17.7%.

Question: What about the inhibition at 0.312 µg/mL (mice spleen cells [3]; Mus musculus, 72 h, LPS, 312 ng/ml, read-out: Suppression rate) of the same compound?
Answer: The inhibition at 0.312 µg/mL was 24.4%.

Question: And the inhibition at 0.625 µg/mL (mice spleen cells [3]; Mus musculus, 72 h, LPS, 625 ng/ml, read-out: Suppression rate)?
Answer: Its inhibition at 0.625 µg/mL is 84.3%.

Question: And the inhibition at 1.25 µg/mL (mice spleen cells [3]; Mus musculus, 72 h, LPS, 1250 ng/ml, read-out: Suppression rate)?
Answer: The inhibition at 1.25 µg/mL was 98%.

Question: What about the inhibition at 2.5 µg/mL (mice spleen cells [3]; Mus musculus, 72 h, LPS, 2500 ng/ml, read-out: Suppression rate) of the same compound?
Answer: Its inhibition at 2.5 µg/mL is 105%.

Question: What about the IC50 (mice spleen cells [3]; Mus musculus, LPS) of the same compound?
Answer: The IC50 was 0.368 mg/L (≈ 0.533 µM).

Question: What about the “suppression of the reaction to Con A of spleen cells” value (mice spleen cells [4]) of the same compound?
Answer: Its value is “suppressed”.

Question: And the inhibition at 0.156 µg/mL (mice spleen cells [4]; Mus musculus, 72 h, Con A, 156 ng/ml, read-out: Suppression rate)?
Answer: Its inhibition at 0.156 µg/mL is 0%.

Question: And the inhibition at 0.312 µg/mL (mice spleen cells [4]; Mus musculus, 72 h, Con A, 312 ng/ml, read-out: Suppression rate)?
Answer: The inhibition at 0.312 µg/mL was 16.5%.

Question: What about the inhibition at 0.625 µg/mL (mice spleen cells [4]; Mus musculus, 72 h, Con A, 625 ng/ml, read-out: Suppression rate) of the same compound?
Answer: Its inhibition at 0.625 µg/mL is 87.4%.

Question: What about the inhibition at 1.25 µg/mL (mice spleen cells [4]; Mus musculus, 72 h, Con A, 1250 ng/ml, read-out: Suppression rate) of the same compound?
Answer: Its inhibition at 1.25 µg/mL is 98.6%.

Question: And the inhibition at 2.5 µg/mL (mice spleen cells [4]; Mus musculus, 72 h, Con A, 2500 ng/ml, read-out: Suppression rate)?
Answer: The inhibition at 2.5 µg/mL was 102%.

Question: What about the IC50 (mice spleen cells [4]; Mus musculus, Con A) of the same compound?
Answer: The IC50 was 0.399 mg/L (≈ 0.578 µM).

Question: Which MCC [2] does the source give for `CCCCCc1cccc(OC(C)=O)c1C1=NC(C2SCC(C(OC(C)=O)C(C)(C)C3=NC(C)(C(=O)OC)CS3)N2C)CS1` (stereo not shown) [Compound 10] here?
Answer: Its MCC is over 10 µg/mL.

Question: What about the minimal effective concentration (Eimeria tenella) of the same compound?
Answer: The minimal effective concentration was over 10 µg/mL.

Question: Which results are given for `CCCCCc1cccc(OCc2ccc(Cl)cc2)c1C1=NC(C2SCC(C(O)C(C)(C)C3=NC(C)(C(=O)OC)CS3)N2C)CS1` (stereo not shown) [Compound 11]?
Answer: MCC [2]: > 10 µg/mL; minimal effective concentration (Eimeria tenella): 10 µg/mL

Question: With `CCCCCc1cccc(O)c1C1=NC(C2SCC(C(O)C(C)(C)C3=NC(C)(C(=O)OC)CS3)N2C)CS1` (stereo not shown) [Compound 12] as the compound, how does the MIC (M. pneumoniae) read?
Answer: Its MIC is at most 0.00625 mg/L.

Question: What about the “MICs to Mycoplasmas” value (Mycoplasma) of the same compound?
Answer: Its value is “low MICs”.

Question: What about the MCC [2] of the same compound?
Answer: Its MCC is over 10 µg/mL.

Question: What about the MIC (M. hyopneumoniae) of the same compound?
Answer: Its MIC is at most 0.025 mg/L.

Question: What about the MIC (M. gallisepticum [5]) of the same compound?
Answer: Its MIC is 0.2 mg/L (≈ 0.345 µM).

Question: What about the minimal effective concentration (Eimeria tenella) of the same compound?
Answer: Its minimal effective concentration is 0.625 µg/mL.

Question: Which MCC [2] does the source give for `CCCCCc1cccc(O)c1C1=NC(C2SCC(C(OCc3ccc(Cl)cc3)C(C)(C)C3=NC(C)(C(=O)OC)CS3)N2C)CS1` (stereo not shown) [Compound 13] here?
Answer: Its MCC is over 10 µg/mL.

Question: And the minimal effective concentration (Eimeria tenella)?
Answer: The minimal effective concentration was over 10 µg/mL.
